Measurements reported in ChEMBL document CHEMBL1142282, “Asymmetric synthesis and stereochemical structure-activity relationship of (R)- and (S)-8-[1-(2,4-dichlorophenyl)-2-imidazol-1-yl-ethoxy] octanoic acid heptyl ester, a potent inhibitor of allene oxide synthase” (Bioorg Med Chem, 2008).

How the values were obtained:
[1] = Binding affinity at arabidopsis recombinant allene oxide synthase
[2] = Inhibition of arabidopsis recombinant allene oxide synthase; settings: read-out: I50
Arabidopsis = test: Inhibition of arabidopsis recombinant allene oxide synthase at 1 uM

| Kd [1] [nM] | IC50 [2] [nM] | inhibition (Arabidopsis) [%] | Structure (SMILES) |
| --- | --- | --- | --- |
| 4800 | 950 | 50 | CCCCCCCOC(=O)CCCCCCCO[C@H](Cn1ccnc1)c1ccc(Cl)cc1Cl |
| 1400 | 5 | 93 | CCCCCCCOC(=O)CCCCCCCO[C@@H](Cn1ccnc1)c1ccc(Cl)cc1Cl |
